Blank lines part the entries; values can stand above or below the compound they belong to.
Legend:
[1] = tested on: CKO model-derived glioma cell lines 1483 and 1877; experiment: Proliferation rate of CKO model-derived glioma cell lines (EdU incorporation assay); type: cell-based, mouse; conditions: for proliferation of tumor OPCs: 200 μM glutamate, 200 μM GABA or 15 mM KCl vs control, cell lines 1483 and 1877
Source text: Cell lines were authenticated by tdTomato marker when histology analyzing. All cell lines tested negative for mycoplasma contamination.

[2] = tested on: blood-brain-barrier; experiment: Evans Blue dye assay of blood-brain barrier integrity; type: in vivo, mouse; conditions: WT mice, clozapine by drinking water or i.p.
Description: The protocol was adapted from Ludewig et al.^42 with some modifications. Mice were administrated with 200 μL Evans Blue (2%) by i.p injection. After six hours of EB injection, the mice were anaesthetized and then perfused with cold PBS. 100 mg tissue for each sample from multiple organs (as indicated in the FIG. 9g) was collected in 500 μL PBS and ground into tissue homogenate. 500 μL formamide was then add to the homogenate before being incubated in the 55° C. for 24 hours. After centrifugation, supernatants were collected for optical density detecting at 620 nm.

[3] = tested on: peripheral immune cells; experiment: Immune cells in peripheral blood under clozapine (FACS); type: in vivo, mouse; conditions: clozapine by oral or i.p. administration, three weeks
Description: Blood was collected by intracardial puncture from anaesthetized mice into heparinized 1 ml syringes. Heparin was used in a range of 30 units/ml. Red blood cells were lysed in ACK lysing buffer (Gibco, A10492) at room temperature for 5 min. Cell suspensions were spun down at 300 g for 5 min. The cell pellet was then washed with Hank's balanced salt solution (HBSS) and spun for 5 min at 300 g. The cells in the pellet (1-2×10^5 cells) were used in fluorescence assays. Antibodies used for flow cytometry were directed against the following mouse antigens: Pacific Blue anti-mouse CD45(30-F11), PE anti-mouse Ly-6G(1A8), PerCP/Cyanine5.5 anti-mouse CD11c, FITC anti-mouse CD19(1D3), APC anti-mouse CD3(17A2), APC/Cyanine7 anti-mouse/human CD11b(M1/70) from Biolegend. Dilution: 1: 200.

[4] = tested on: local resident microglia; experiment: Granulocytes and macrophage/microglia in the brain under clozapine (CD15, Iba1, CD68 staining); type: in vivo, mouse
Description: All mouse frozen tissues were cryo-sectioned into 20 μm thickness. For routine staining, the slides were fixed in ice-cold 2% PFA for 15 minutes. After washed in 1×PBS (3 times, 10 minutes each), the slides were briefly rinsed with 1×PBT (0.3% Triton X-100 in 1×PBS) and then incubated with the blocking solution (5% normal donkey serum, 0.3% Triton X-100, 0.1% NaN3 in 1×PBS) for 20 minutes. The slides mounted with primary antibodies were then incubated in the wet box at 4° C. overnight. Next day, the slides were washed in 1×PBT (4 times, 10 minutes each) before incubated with secondary antibodies (diluted in 1×PBT) in foil-wrapped wet box at 4° C. overnight. The third day, the slides were washed in 1×PBT (4 times, 10 minutes each) and DAPI solution (25 ng/ml in 1×PBS, 20 minutes). After washing with 1×PBS for 5 minutes, the slides were mounted with the mounting solution (65% glycerol in 1×PBS) and covered with coverslips.

[5] = tested on: glioma cells from the CKO model; experiment: RNA-Seq of glioma cells co-cultured with primary OB neurons and stimulated by IGF-1; type: cell-based, mouse; conditions: co-cultures stimulated by 20 ng/mL IGF-1
Description: OBs were dissected from P2-3 mouse pups and digested in 10 mL papain solution (1×EBSS (Sigma, E7510), 0.5 mM EDTA, 10 mM HEPES, 26 mM NaHCO3, 22.5 mM D(+)-glucose, 0.16 mg/mL L-cycteine, 20 units/mL papain (Worthington Biochem, LS003126), 250 μg/mL DNase I (Sigma, DN-25) in dd-water) for 30 min at 37° C. Papain solution was discarded and the tissue was triturated with 2 mL Diluted Trypsin Inhibitor Buffer (1×EBSS (Sigma, E7510), 10 mM HEPES, 26 mM NaHCO3, 1× ovomucoid (Worthington Biochem, LS003086), 250 μg/mL DNase I (Sigma, DN-25), 1 mg/mL BSA (equitech-bio, BAH62) in dd-water) by 1 mL pipette and was allowed to settle for 2 min. 1 mL upper cell suspension was carefully collected and additional 1 mL Diluted Trypsin Inhibitor Buffer was add to the tissue. The process was repeated until all Diluted Trypsin Inhibitor Buffer was consumed. […]
For sequencing of tumor cells from co-cultures, raw data was filtered by removing adapter with Cutadapt (Version 3.4) and quality control (not lower than 25). Clean reads were aligned to the reference genome Mus_musculus.GRCm39.dna.primary_assembly.fa (39.103) from Ensembl by STAR (Version 2.7.9a). Read counts were calculated by featureCounts (Version 2.0.1). The feature was selected as Exon, and only reads with mapping quality score greater than 25 were retained. […]

Compound: O=[N+]([O-])c1cc2nc(O)c(O)nc2cc1[N+](=O)[O-] [DQNX]
IGF1-promoted proliferation of tumor OPCs ([1]; 20 ng/mL IGF-1 plus 10 μM AMPA-receptor antagonist vs IGF-1 alone): did not affect

integrity of the blood-brain-barrier [2]: did not affect the integrity | number of granulocytes in peripheral blood [3]: slightly but significantly reduced | number of macrophages in peripheral blood [3]: increased | number or activation of local resident microglia ([4]; CKO model regardless of tumor stage, Iba1+ and CD68+ Iba1+): not affected | granulocytes (CD15) in the brain parenchyma ([4]; WT, Omp-hM3Dq, Omp-hM4Di and CKO tumor mice with clozapine treatment): barely any granulocytes could be found
Compound: CN1CCN(C2=Nc3cc(Cl)ccc3Nc3ccccc32)CC1 [clozapine]

Compound: [Cl-].[K+] [potassium chloride]
proliferation of tumor OPCs [1]: did not affect

Compound: N[C@@H](CCC(=O)O)C(=O)O [Glutamate]
proliferation of tumor OPCs [1]: did not affect

Compound: insulin-like growth factor-1 [IGF-1]
proliferation of tumor OPCs in vitro ([1]; 20 ng/mL IGF-1, glioma cell lines 1483 and 1877): significantly stimulated the proliferation | expression of RTK downstream genes such as Egr3/4 and Fosl2 [5]: significant upregulation | expression of neurotransmitter receptor genes including AMPARs in tumor OPCs [5]: did not affect the expression

Compound: NCCCC(=O)O [GABA]
proliferation of tumor OPCs [1]: did not affect

— patent US20240374610A1, “METHOD AND PHARMACEUTICAL COMPOSITION FOR TREATING OR ALLEVIATING GLIOMAS IN A SUBJECT” (Zhejiang University, priority 2023, published 2024)
